Measured values: US8748624B2, “Picolinamido-propanoic acid derivatives useful as glucagon receptor antagonists” (Janssen Pharmaceutica NV, priority 2011, dated 2014)

Experiments:
[1] = biological target: human glucagon receptor (GCGR) (Homo sapiens (Human), UniProt P47871); assay: Inhibition of 125I-glucagon binding to membranes from HEK293 cells expressing the human glucagon receptor; conditions: membranes of hGluc-1 HEK cells, 125I-glucagon 0.3 nM
Procedure, shortened: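 Compound displacement of ¹²⁵I-glucagon (0.3 nM) was run for 2 h at room temperature in 50 mM HEPES pH 7.4 with 5 mM MgCl2, 1 mM CaCl2 and 0.2% BSA, using 6 μg/well membranes from stably transfected hGCGR HEK293 cells. Filter-bound counts gave IC50s, expressed as Ki.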

[2] = biological target: human GCGR (Homo sapiens (Human), UniProt P47871); assay: Cellular functional assay, cAMP readout (glucagon-stimulated cAMP in HEK293 cells expressing human GCGR); format: cell-based; conditions: hGluc-1 HEK cells
human GCGR, sequence (P47871 26-477): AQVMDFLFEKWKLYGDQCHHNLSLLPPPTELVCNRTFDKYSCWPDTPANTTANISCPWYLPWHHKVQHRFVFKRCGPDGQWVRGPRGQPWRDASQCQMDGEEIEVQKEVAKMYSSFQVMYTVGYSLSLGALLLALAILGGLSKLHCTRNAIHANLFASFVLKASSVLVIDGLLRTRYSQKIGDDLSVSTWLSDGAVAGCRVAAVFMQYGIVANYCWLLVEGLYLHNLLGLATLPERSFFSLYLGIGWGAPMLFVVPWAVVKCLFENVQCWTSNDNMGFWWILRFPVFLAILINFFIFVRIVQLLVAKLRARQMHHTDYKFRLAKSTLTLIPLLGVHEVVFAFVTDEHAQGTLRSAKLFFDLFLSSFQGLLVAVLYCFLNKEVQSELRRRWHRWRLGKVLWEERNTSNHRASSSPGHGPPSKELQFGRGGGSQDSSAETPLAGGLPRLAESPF
Procedure, shortened: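 HEK293 cells stably transfected with full-length human GCGR were exposed to compound for 30 min before a 5-min challenge with […] (final) glucagon. Readout was TR-FRET (LANCE) cAMP versus standard curve; IC50s fitted by non-linear regression and converted to Ki values.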

[3] = 2 hours room temperature, IC50 converted to Ki, average if tested more than once
[4] = LANCE TR-FRET, IC50 converted to Ki, average if tested more than once
[5] = meta-substituted comparative compounds (Table 3)

human glucagon receptor (GCGR), sequence (P47871 26-477): as above

Row | SMILES | Ki [1, 3] [nM] | Ki [2, 4] [nM] | Ki [1, 5] [nM] | Ki [2, 5] [nM]
1 | C=C(C)c1ccc(CNc2ccc(-c3ccc(F)cc3)cc2)c(-c2ccc(C(=O)NCCC(=O)O)nc2)c1 [Compound 157, 3-(5-(2-(((4′-fluoro-[1,1′-biphenyl]-4-yl)amino)methyl)-5-(prop-1-en-2-yl)phenyl)picolinamido)propanoic acid] | 33.5 | 113 |  | 
2 | CC(C)c1ccc(CNc2ccc(-c3ccc(F)cc3)cc2)c(-c2ccc(C(=O)NCCC(=O)O)nc2)c1 [Compound 158, 3-(5-(2-(((4′-fluoro-[1,1′-biphenyl]-4-yl)amino)methyl)-5-isopropylphenyl)picolinamido)propanoic acid] | 20 | 125 |  | 
3 | CC(C)(C)c1ccc(-c2ccc(NCc3ccc(Cl)cc3-c3ccc(C(=O)NCCC(=O)O)nc3)cc2Cl)cc1 [Compound 168, 3-(5-(2-(((4′-(tert-butyl)-2-chloro-[1,1′-biphenyl]-4-yl)amino)methyl)-5-chlorophenyl)picolinamido)propanoic acid] | 37.9 | 370 |  | 
4 | O=C(O)CCNC(=O)c1ccc(-c2cc(Cl)ccc2CNc2ccc(-c3ccc(Cl)c(C(F)(F)F)c3)c(Cl)c2)cn1 [Compound 169, 3-(5-(5-chloro-2-(((2,4′-dichloro-3′-(trifluoromethyl)-[1,1′-biphenyl]-4-yl)amino)methyl)phenyl)picolinamido)propanoic acid] | 39 | 142 |  | 
5 | O=C(O)CCNC(=O)c1ccc(-c2cc(Cl)ccc2CNc2ccc(-c3cccc(C(F)(F)F)c3)c(Cl)c2)cn1 [Compound 170, 3-(5-(5-chloro-2-(((2-chloro-3′-(trifluoromethyl)-[1,1′-biphenyl]-4-yl)amino)methyl)phenyl)picolinamido)propanoic acid] | 20.7 | 66.8 |  | 
6 | O=C(O)CCNC(=O)c1ccc(-c2cc(Cl)ccc2CNc2ccc(-c3ccc(F)c(Cl)c3)c(Cl)c2)cn1 [Compound 171, 3-(5-(5-chloro-2-(((2,3′-dichloro-4′-fluoro-[1,1′-biphenyl]-4-yl)amino)methyl)phenyl)picolinamido)propanoic acid] | 36 | 117 |  | 
7 | Cc1ccc(-c2ccc(NCc3ccc(Cl)cc3-c3ccc(C(=O)NCCC(=O)O)nc3)cc2Cl)cc1 [Compound 172, 3-(5-(5-chloro-2-(((2-chloro-4′-methyl-[1,1′-biphenyl]-4-yl)amino)methyl)phenyl)picolinamido)propanoic acid] | 26.9 | 69.2 |  | 
8 | O=C(O)CCNC(=O)c1ccc(-c2cc(-c3ccccc3)ccc2CNc2ccc(-c3ccc(Cl)cc3Cl)cc2)cn1 [Compound 173, 3-(5-(4-(((2′,4′-dichloro-[1,1′-biphenyl]-4-yl)amino)methyl)-[1,1′-biphenyl]-3-yl)picolinamido)propanoic acid] | 27 | 67.5 |  | 
9 | O=C(O)CCNC(=O)c1ccc(-c2cc(C3=CCCCC3)ccc2CNc2ccc(-c3ccc(F)cc3)cc2)cn1 [Compound 174, 3-(5-(4-(((4′-fluoro-[1,1′-biphenyl]-4-yl)amino)methyl)-2′,3′,4′,5′-tetrahydro-[1,1′-biphenyl]-3-yl)picolinamido)propanoic acid] | 18.3 | 110 |  | 
10 | O=C(O)CCNC(=O)c1ccc(-c2cc(C3CCCCC3)ccc2CNc2ccc(-c3ccc(F)cc3)cc2)cn1 [Compound 175, 3-(5-(5-cyclohexyl-2-(((4′-fluoro-[1,1′-biphenyl]-4-yl)amino)methyl)phenyl)picolinamido)propanoic acid] | 24.2 | 45.8 |  | 
11 | O=C(O)CCNC(=O)c1ccc(-c2cc(C3=CCCCC3)ccc2CNc2ccc(-c3ccc(Cl)cc3Cl)cc2)cn1 [Compound 176, 3-(5-(4-(((2′,4′-dichloro-[1,1′-biphenyl]-4-yl)amino)methyl)-2′,3′,4′,5′-tetrahydro-[1,1′-biphenyl]-3-yl)picolinamido)propanoic acid] | 40 | 160 |  | 

The remaining lines, values ahead:

Row | Ki [1, 3] [nM] | Ki [2, 4] [nM] | Ki [1, 5] [nM] | Ki [2, 5] [nM] | SMILES
12 |  |  | > 2700 | > 10400 | O=C(O)CCNC(=O)c1ccc(-c2cc(Cl)cc(CNc3ccc(-c4ccc(F)cc4)cc3)c2)cn1 [Compound M1, 3-(5-(3-chloro-5-(((4′-fluoro-[1,1′-biphenyl]-4-yl)amino)methyl)phenyl)picolinamido)propanoic acid, reference compound]
13 |  |  | > 2700 | > 10400 | COc1ccc(-c2ccc(NCc3cc(Cl)cc(-c4ccc(C(=O)NCCC(=O)O)nc4)c3)cc2)cc1 [Compound M2, 3-(5-(3-chloro-5-(((4′-methoxy-[1,1′-biphenyl]-4-yl)amino)methyl)phenyl)picolinamido)propanoic acid, reference compound]
14 |  |  | > 1350 | > 10400 | O=C(O)CCNC(=O)c1ccc(-c2cc(Cl)cc(CNc3ccc(-c4ccc(Cl)cc4)cc3)c2)cn1 [Compound M3, 3-(5-(3-chloro-5-(((4′-chloro-[1,1′-biphenyl]-4-yl)amino)methyl)phenyl)picolinamido)propanoic acid, reference compound]
15 |  |  | > 1350 | > 10400 | O=C(O)CCNC(=O)c1ccc(-c2cc(Cl)cc(CNc3ccc(-c4ccc(Cl)cc4Cl)cc3)c2)cn1 [Compound M4, 3-(5-(3-chloro-5-(((2′,4′-dichloro-[1,1′-biphenyl]-4-yl)amino)methyl)phenyl)picolinamido)propanoic acid, reference compound]
16 |  |  | > 5400 | > 10400 | O=C(O)CCNC(=O)c1ccc(-c2cc(Cl)cc(C(=O)Nc3ccc(-c4ccc(Cl)cc4)cc3)c2)cn1 [Compound M5, 3-(5-(3-chloro-5-((4′-chloro-[1,1′-biphenyl]-4-yl)carbamoyl)phenyl)picolinamido)propanoic acid, reference compound]
